The values that follow come from patent publication US9670227B2, “Thienopyrimidine derivatives, a process for their preparation and pharmaceutical compositions containing them” (LES LABORATOIRES SERVIER, priority 2013, dated 2017).

Sequence of Mcl-1 protein (Q07820 whole entry): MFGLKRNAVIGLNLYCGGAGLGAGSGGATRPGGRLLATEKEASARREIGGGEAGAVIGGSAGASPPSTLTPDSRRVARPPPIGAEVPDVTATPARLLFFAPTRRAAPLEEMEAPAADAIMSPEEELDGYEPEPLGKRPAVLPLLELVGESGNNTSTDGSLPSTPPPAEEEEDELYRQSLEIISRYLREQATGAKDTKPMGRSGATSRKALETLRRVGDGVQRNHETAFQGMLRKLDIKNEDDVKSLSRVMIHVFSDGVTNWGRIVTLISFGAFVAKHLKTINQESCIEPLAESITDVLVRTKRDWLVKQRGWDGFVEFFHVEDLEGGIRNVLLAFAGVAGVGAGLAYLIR

In one assay the target is Mcl-1 protein (UniProtKB primary accession number: Q07820) (Homo sapiens, UniProt Q07820). The experiment in a line: Inhibition of Mcl-1 by fluorescence polarisation, Method 1. Particulars: fluorescence polarisation test; Method 1, or Method 2 where the value is underlined (underlining not visible); read-out: IC50 (M) Mcl-1 FP. Type of assay: binding. In short, it runs like this:
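An 11-point DMSO dilution of compound is mixed with buffer (10 mM HEPES, 150 mM NaCl, 0.05% Tween 20, pH 7.4) carrying 1 nM fluorescein-labelled ligand and 5 nM Mcl-1, final concentrations. Displacement is monitored by fluorescence polarisation.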
For orientation: Fluorescence polarisation rises when a labelled molecule tumbles more slowly, as on binding a larger partner.
For `COc1ccccc1-c1nccc(COc2ccccc2CC(Oc2ncnc3sc(-c4ccc(F)cc4)c(-c4ccc(OCCN5CCN(C)CC5)c(Cl)c4C)c23)C(=O)OC(C)OC(=O)C(C)(C)C)n1` [Example 859, 1-{[(2R)-2-{[(5Sa)-5-{3-chloro-2-methyl-4-[2-(4-methylpiperazin-1-yl)ethoxy]phenyl}-6-(4-fluorophenyl)thieno[2,3-d]pyrimidin-4-yl]oxy}-3-(2-{[2-(2-methoxyphenyl)pyrimidin-4-yl]methoxy}phenyl)propanoyl]oxy}ethyl 2,2-dimethylpropanoate], the half-maximal inhibitory concentration (IC50) (commonly the point on the concentration scale where inhibition reaches its midpoint) is 1.13e-06 M.

Regarding `COCCOc1ccccc1-c1nccc(COc2ccccc2CC(Oc2ncnc3sc(-c4ccc(F)cc4)c(-c4ccc(OCCN(C)C)c(Cl)c4C)c23)C(=O)OCC(=O)N(C)C)n1` [Example 819, 2-(dimethylamino)-2-oxoethyl (2R)-2-{[(5Sa)-5-{3-chloro-4-[2-(dimethylamino)ethoxy]-2-methylphenyl}-6-(4-fluorophenyl)thieno[2,3-d]pyrimidin-4-yl]oxy}-3-[2-({2-[2-(2-methoxyethoxy)phenyl]pyrimidin-4-yl}methoxy)phenyl]propanoate], the half-inhibitory concentration (IC50) came out at 1.57e-07 M.

Turning to `COc1ccccc1CC(Oc1ncnc2sc(-c3ccc(F)cc3)c(-c3ccc(OCCN4CCN(C)CC4)c(Cl)c3C)c12)C(=O)OCC(=O)N(C)C` [Example 844, 2-(dimethylamino)-2-oxoethyl (2R)-2-{[(5Sa)-5-{3-chloro-2-methyl-4-[2-(4-methylpiperazin-1-yl)ethoxy]phenyl}-6-(4-fluorophenyl)thieno[2,3-d]pyrimidin-4-yl]oxy}-3-(2-methoxyphenyl)propanoate], the IC50 came to 1.67e-06 M.

The assay is the same for the next values; noted with them: fluorescence polarisation test; Method 2 values are underlined in the patent (underlining not visible here); read-out: IC50 (M) Mcl-1 FP.
In the case of `COc1ccccc1CC(Oc1ncnc2sc(-c3ccc(Cl)o3)c(-c3ccc(OCCN4CCN(C)CC4)c(Cl)c3C)c12)C(=O)O` [Example 363, (2R)-2-{[6-(5-chlorofuran-2-yl)-(5Sa)-5-{3-chloro-2-methyl-4-[2-(4-methylpiperazin-1-yl)ethoxy]phenyl}thieno[2,3-d]pyrimidin-4-yl]oxy}-3-(2-methoxyphenyl)propanoic acid], the IC50 came to 7.7e-09 M.

Regarding `COc1ccccc1CC(Oc1ncnc2sc(-c3ccco3)c(-c3ccc(OCCN4CC[N+](C)([O-])CC4)c(Cl)c3C)c12)C(=O)O` [Example 296, (2R)-2-{[(5Sa)-5-{3-chloro-2-methyl-4-[2-(4-methyl-4-oxidopiperazin-1-yl)ethoxy]phenyl}-6-(furan-2-yl)thieno[2,3-d]pyrimidin-4-yl]oxy}-3-(2-methoxyphenyl)propanoic acid], the IC50 worked out at 9.3e-09 M.

As to `Cc1c(-c2c(-c3ccco3)sc3ncnc(OC(Cc4ccccc4CN)C(=O)O)c23)ccc(OCCN2CCN(C)CC2)c1Cl` [Example 355, (2R)-3-[2-(aminomethyl)phenyl]-2-{[(5Sa)-5-{3-chloro-2-methyl-4-[2-(4-methylpiperazin-1-yl)ethoxy]phenyl}-6-(furan-2-yl)thieno[2,3-d]pyrimidin-4-yl]oxy}propanoic acid], the half-maximal inhibitory concentration (IC50) was found to be 3e-08 M.

As to `Cc1c(-c2c(-c3ccco3)sc3ncnc(OC(Cc4ccccc4SCC(F)(F)F)C(=O)O)c23)ccc(OCCN2CCN(C)CC2)c1Cl` [Example 361, (2S)-2-{[(5Ra)-5-{3-chloro-2-methyl-4-[2-(4-methylpiperazin-1-yl)ethoxy]phenyl}-6-(furan-2-yl)thieno[2,3-d]pyrimidin-4-yl]oxy}-3-{2-[(2,2,2-trifluoroethyl)sulfanyl]phenyl}propanoic acid], the IC50 stood at 7.1e-07 M.

Regarding `Cc1c(-c2c(-c3ccc(F)cc3)sc3ncnc(OC(Cc4ccccc4OCc4ccnn4C(C)(C)C)C(=O)O)c23)ccc(OCCN2CCN(C)CC2)c1Cl` [Example 70, (2R)-3-{2-[(1-tert-butyl-1H-pyrazol-5-yl)methoxy]phenyl}-2-{[(5Sa)-5-{3-chloro-2-methyl-4-[2-(4-methylpiperazin-1-yl)ethoxy]phenyl}-6-(4-fluorophenyl)thieno[2,3-d]pyrimidin-4-yl]oxy}propanoic acid], the IC50 came to 1.6e-09 M.

For the compound `Cc1c(-c2c(-c3ccc(F)cc3)sc3ncnc(OC(Cc4ccccc4OCc4ccnc(N5CCOCC5)n4)C(=O)O)c23)ccc(OCCN2CCN(C)CC2)c1Cl` [Example 52, (2R)-2-{[(5Sa)-5-{3-chloro-2-methyl-4-[2-(4-methylpiperazin-1-yl)ethoxy]phenyl}-6-(4-fluorophenyl)thieno[2,3-d]pyrimidin-4-yl]oxy}-3-(2-{[2-(morpholin-4-yl)pyrimidin-4-yl]methoxy}phenyl)propanoic acid], the concentration for half-maximal inhibition (IC50) was 5.6e-09 M.

The same assay, now with this note: fluorescence polarisation; Method 1, or Method 2; read-out: IC50 (M) Mcl-1 FP.
Consider `COc1ccccc1CC(Oc1ncnc2sc(-c3cccc(F)c3)c(-c3ccc(OCCN4CCN(C)CC4)c(Cl)c3C)c12)C(=O)O` [Example 551, (2R)-2-{[(5Sa)-5-{3-chloro-2-methyl-4-[2-(4-methylpiperazin-1-yl)ethoxy]phenyl}-6-(3-fluorophenyl)thieno[2,3-d]pyrimidin-4-yl]oxy}-3-(2-methoxyphenyl)propanoic acid], for which the IC50 came to 2.8e-08 M.

With `Cc1c(-c2c(C#N)sc3ncnc(OC(Cc4ccccc4)C(=O)O)c23)ccc(OCCN2CCN(C)CC2)c1Cl` [Example 521, (2R)-2-[((5Sa)-5-{3-chloro-2-methyl-4-[2-(4-methylpiperazin-1-yl)ethoxy]phenyl}-6-cyanothieno[2,3-d]pyrimidin-4-yl)oxy]-3-phenylpropanoic acid], the 50% inhibitory concentration (IC50) came to 2.4e-07 M.

In the case of `CCc1sc2ncnc(OC(Cc3ccccc3)C(=O)O)c2c1-c1ccc(OCCN(C)C)cc1C` [Example 409, (2R)-2-[((5Sa)-5-{4-[2-(dimethylamino)ethoxy]-2-methylphenyl}-6-ethylthieno[2,3-d]pyrimidin-4-yl)oxy]-3-phenylpropanoic acid], the IC50 came to 2e-07 M.

For “(2R)-2-{[(5Sa)-5-(3-chloro-2-methylphenyl)-6-ethylthieno[2,3-d]pyrimidin-4-yl]oxy}-3-phenylpropanoic acid and (2S)-2-{[(5Ra)-5-(3-chloro-2-methylphenyl)-6-ethylthieno[2,3-d]pyrimidin-4-yl]oxy}-3-phenylpropanoic acid [Example 449]”, the IC50 was 2.8e-08 M.

Turning to `Cc1c(-c2c(-c3ccc(F)cc3)sc3ncnc(OC(Cc4ccccc4OCC4CCCO4)C(=O)O)c23)ccc(OCCN2CCOCC2)c1Cl` [Example 648, (2R)-2-{[(5Sa)-5-{3-chloro-2-methyl-4-[2-(morpholin-4-yl)ethoxy]phenyl}-6-(4-fluorophenyl)thieno[2,3-d]pyrimidin-4-yl]oxy}-3-{2-[(2R)-tetrahydrofuran-2-ylmethoxy]phenyl}propanoic acid], the half-maximal inhibitory concentration (IC50) was found to be 1.4e-08 M.

Still in this assay, the particulars now being: partial inhibitors; @ 10 uM test compound.
For `CCOC(=O)[C@@H](Cc1ccccc1OCc1ccnc(OC)n1)Oc1ncnc2sc(-c3ccc(F)cc3)c(-c3ccc(OCCN4CCN(C)CC4)c(Cl)c3C)c12` [Example 626, ethyl (2R)-2-{[(5Sa)-5-{3-chloro-2-methyl-4-[2-(4-methylpiperazin-1-yl)ethoxy]phenyl}-6-(4-fluorophenyl)thieno[2,3-d]pyrimidin-4-yl]oxy}-3-{2-[(2-methoxypyrimidin-4-yl)methoxy]phenyl}propanoate], the “percentage fluorescence polarisation inhibition, Mcl-1 FP” value stood at 39.45% @ 10 uM.

Still in this assay, the particulars now being: test compound at 10 uM; Method 1, or Method 2 where the value is underlined (underlining not visible).
As to `CCOC(=O)[C@@H](Cc1ccccc1OC)Oc1ncnc2sc(-c3ccc(F)cc3)c(-c3ccc(OC)c(Cl)c3C)c12` [Example 842, ethyl (2R)-2-{[(5Sa)-5-(3-chloro-4-methoxy-2-methylphenyl)-6-(4-fluorophenyl)thieno[2,3-d]pyrimidin-4-yl]oxy}-3-(2-methoxyphenyl)propanoate], the “percentage fluorescence polarisation inhibition (Mcl-1 FP), partial inhibitors” value came out at 7.65% @ 10 uM.
